Data published in US20250144094A1 (Erasca, Inc., priority 2021, published 2025).

Molecular target: Recombinant human ULK1 (1-649) (Homo sapiens (Human), UniProt O75385)
Test: ULK1 ADP Glo kinase activity assay, new method (ULKtide peptide substrate)
Details: 25° C., 40 minutes, read-out: ULK1 biochemical IC50
Procedure, shortened: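 Kinase activity was read as ADP production (ADP-Glo, luminescence 30 min after detection reagent) following a 40-min, 25 °C reaction of Sf9-expressed GST-ULK1 (1-649) with ULKtide substrate and ATP. Compounds ran as 12-point series starting at 10 μM; four-parameter curve fitting versus DMSO wells gave IC50.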

Sequence of Recombinant human ULK1 (1-649) (O75385 1-649): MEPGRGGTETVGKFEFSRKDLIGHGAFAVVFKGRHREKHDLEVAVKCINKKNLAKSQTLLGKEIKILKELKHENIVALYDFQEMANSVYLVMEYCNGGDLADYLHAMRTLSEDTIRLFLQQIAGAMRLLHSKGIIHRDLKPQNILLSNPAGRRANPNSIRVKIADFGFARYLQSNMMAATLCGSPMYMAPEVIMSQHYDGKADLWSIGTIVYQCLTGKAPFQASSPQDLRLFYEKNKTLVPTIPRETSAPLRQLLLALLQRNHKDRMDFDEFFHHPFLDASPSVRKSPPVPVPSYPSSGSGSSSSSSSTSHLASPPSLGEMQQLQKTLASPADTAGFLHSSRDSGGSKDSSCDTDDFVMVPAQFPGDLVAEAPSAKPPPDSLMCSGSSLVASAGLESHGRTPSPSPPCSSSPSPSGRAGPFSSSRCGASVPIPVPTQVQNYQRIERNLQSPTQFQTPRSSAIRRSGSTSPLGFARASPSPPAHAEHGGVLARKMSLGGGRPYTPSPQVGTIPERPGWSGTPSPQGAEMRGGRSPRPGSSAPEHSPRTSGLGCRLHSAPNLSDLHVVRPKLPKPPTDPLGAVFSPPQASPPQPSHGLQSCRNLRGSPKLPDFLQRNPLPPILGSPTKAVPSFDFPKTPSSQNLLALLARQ

Row | Compound | IC50
1 | CCc1cc(N2C[C@@H]3C[C@H]2CN3C)ccc1Nc1ncc(C(F)(F)F)c(-c2cc3c(s2)C(=O)N(C2CC2)CCS3(=O)=O)n1 [Example 321, 4-cyclopropyl-7-(2-((2-ethyl-4-((1S,4S)-5-methyl-2,5-diazabicyclo[2.2.1]heptan-2-yl)phenyl)amino)-5-(trifluoromethyl)pyrimidin-4-yl)-3,4-dihydrothieno[2,3-f][1,4]thiazepin-5(2H)-one 1,1-dioxide] | ≤ 5 nM
2 | CCc1cc(N2C[C@H]3C[C@@H]2CN3)ccc1Nc1ncc(C(F)(F)F)c(-c2cc3c(s2)C(=O)N(C2CC2)CCS3(=O)=O)n1 [Example 322, 7-(2-((4-((1R,4R)-2,5-diazabicyclo[2.2.1]heptan-2-yl)-2-ethylphenyl)amino)-5-(trifluoromethyl)pyrimidin-4-yl)-4-cyclopropyl-3,4-dihydrothieno[2,3-f][1,4]thiazepin-5(2H)-one 1,1-dioxide] | ≤ 5 nM
3 | CCc1cc(N2C[C@H]3C[C@@H]2CN3C)ccc1Nc1ncc(C(F)(F)F)c(-c2cc3c(s2)C(=O)N(C2CC2)CCS3(=O)=O)n1 [Example 323, 4-cyclopropyl-7-(2-((2-ethyl-4-((1R,4R)-5-methyl-2,5-diazabicyclo[2.2.1]heptan-2-yl)phenyl)amino)-5-(trifluoromethyl)pyrimidin-4-yl)-3,4-dihydrothieno[2,3-f][1,4]thiazepin-5(2H)-one 1,1-dioxide] | ≤ 5 nM
4 | CCc1cc(N2C[C@H]3CC[C@@H](C2)N3)ccc1Nc1ncc(C(F)(F)F)c(-c2cc3c(s2)C(=O)N(C2CC2)CCS3(=O)=O)n1 [Example 324, 7-(2-((4-((1R,5S)-3,8-diazabicyclo[3.2.1]octan-3-yl)-2-ethylphenyl)amino)-5-(trifluoromethyl)pyrimidin-4-yl)-4-cyclopropyl-3,4-dihydrothieno[2,3-f][1,4]thiazepin-5(2H)-one 1,1-dioxide] | ≤ 5 nM
5 | CCc1cc(N2C[C@H]3CC[C@@H](C2)N3C)ccc1Nc1ncc(C(F)(F)F)c(-c2cc3c(s2)C(=O)N(C2CC2)CCS3(=O)=O)n1 [Example 325, 4-cyclopropyl-7-(2-((2-ethyl-4-((1R,5S)-8-methyl-3,8-diazabicyclo[3.2.1]octan-3-yl)phenyl)amino)-5-(trifluoromethyl)pyrimidin-4-yl)-3,4-dihydrothieno[2,3-f][1,4]thiazepin-5(2H)-one 1,1-dioxide] | ≤ 5 nM
6 | C[C@@H]1CN(c2ccc(Nc3ncc(C(F)(F)F)c(-c4cc5c(s4)C(=O)N(C4CC4)CCS5(=O)=O)n3)c(C3CC3)c2)C[C@H](C)N1 [Example 326, 4-cyclopropyl-7-(2-((2-cyclopropyl-4-((3S,5R)-3,5-dimethylpiperazin-1-yl)phenyl)amino)-5-(trifluoromethyl)pyrimidin-4-yl)-3,4-dihydrothieno[2,3-f][1,4]thiazepin-5(2H)-one 1,1-dioxide] | ≤ 5 nM
7 | C[C@H]1CN(c2ccc(Nc3ncc(C(F)(F)F)c(-c4cc5c(s4)C(=O)N(C4CC4)CCS5(=O)=O)n3)c(C3CC3)c2)C[C@H](C)N1 [Example 327, 4-cyclopropyl-7-(2-((2-cyclopropyl-4-((3S,5S)-3,5-dimethylpiperazin-1-yl)phenyl)amino)-5-(trifluoromethyl)pyrimidin-4-yl)-3,4-dihydrothieno[2,3-f][1,4]thiazepin-5(2H)-one 1,1-dioxide] | ≤ 5 nM
8 | C[C@H]1CN(c2ccc(Nc3ncc(C(F)(F)F)c(-c4cc5c(s4)C(=O)N(C4CC4)CCS5(=O)=O)n3)c(C3CC3)c2)C[C@H](C)N1C [Example 328, 4-cyclopropyl-7-(2-((2-cyclopropyl-4-((3S,5S)-3,4,5-trimethylpiperazin-1-yl)phenyl)amino)-5-(trifluoromethyl)pyrimidin-4-yl)-3,4-dihydrothieno[2,3-f][1,4]thiazepin-5(2H)-one 1,1-dioxide] | 5 to 10 nM
9 | O=C1c2sc(-c3nc(Nc4ccc(N5C[C@H]6C[C@@H]5CN6)cc4C4CC4)ncc3C(F)(F)F)cc2S(=O)(=O)CCN1C1CC1 [Example 329, 7-(2-((4-((1R,4R)-2,5-diazabicyclo[2.2.1]heptan-2-yl)-2-cyclopropylphenyl)amino)-5-(trifluoromethyl)pyrimidin-4-yl)-4-cyclopropyl-3,4-dihydrothieno[2,3-f][1,4]thiazepin-5(2H)-one 1,1-dioxide] | ≤ 5 nM
10 | CN1C[C@H]2C[C@@H]1CN2c1ccc(Nc2ncc(C(F)(F)F)c(-c3cc4c(s3)C(=O)N(C3CC3)CCS4(=O)=O)n2)c(C2CC2)c1 [Example 330, 4-cyclopropyl-7-(2-((2-cyclopropyl-4-((1R,4R)-5-methyl-2,5-diazabicyclo[2.2.1]heptan-2-yl)phenyl)amino)-5-(trifluoromethyl)pyrimidin-4-yl)-3,4-dihydrothieno[2,3-f][1,4]thiazepin-5(2H)-one 1,1-dioxide] | ≤ 5 nM
11 | C[C@H]1CN(c2ccc(Nc3ncc(C(F)(F)F)c(-c4cc5c(s4)C(=O)N(C4CC4)CCS5(=O)=O)n3)c(C3CC3)c2)CCN1 [Example 331, (S)-4-cyclopropyl-7-(2-((2-cyclopropyl-4-(3-methylpiperazin-1-yl)phenyl)amino)-5-(trifluoromethyl)pyrimidin-4-yl)-3,4-dihydrothieno[2,3-f][1,4]thiazepin-5(2H)-one 1,1-dioxide] | ≤ 5 nM
12 | C[C@H]1CN(c2ccc(Nc3ncc(C(F)(F)F)c(-c4cc5c(s4)C(=O)N(C4CC4)CCS5(=O)=O)n3)c(C3CC3)c2)CCN1C [Example 332, (S)-4-cyclopropyl-7-(2-((2-cyclopropyl-4-(3,4-dimethylpiperazin-1-yl)phenyl)amino)-5-(trifluoromethyl)pyrimidin-4-yl)-3,4-dihydrothieno[2,3-f][1,4]thiazepin-5(2H)-one 1,1-dioxide] | ≤ 5 nM
13 | CN1C[C@H]2C[C@@H]1CN2c1ccc(Nc2ncc(C(F)(F)F)c(-c3cc4c(s3)C(=O)N(C3COC3)CCS4(=O)=O)n2)c(C2CC2)c1 [Example 334, 7-(2-((2-cyclopropyl-4-((1R,4R)-5-methyl-2,5-diazabicyclo[2.2.1]heptan-2-yl)phenyl)amino)-5-(trifluoromethyl)pyrimidin-4-yl)-4-(oxetan-3-yl)-3,4-dihydrothieno[2,3-f][1,4]thiazepin-5(2H)-one 1,1-dioxide] | ≤ 5 nM
14 | CCc1cc(N2C[C@@H]3C[C@H]2CN3)ccc1Nc1ncc(C(F)(F)F)c(-c2cc3c(s2)C(=O)N(C2COC2)CCS3(=O)=O)n1 [Example 335, 7-(2-((4-((1S,4S)-2,5-diazabicyclo[2.2.1]heptan-2-yl)-2-ethylphenyl)amino)-5-(trifluoromethyl)pyrimidin-4-yl)-4-(oxetan-3-yl)-3,4-dihydrothieno[2,3-f][1,4]thiazepin-5(2H)-one 1,1-dioxide] | ≤ 5 nM
15 | CCc1cc(N2C[C@H]3C[C@@H]2CN3)ccc1Nc1ncc(C(F)(F)F)c(-c2cc3c(s2)C(=O)N(C2COC2)CCS3(=O)=O)n1 [Example 336, 7-(2-((4-((1R,4R)-2,5-diazabicyclo[2.2.1]heptan-2-yl)-2-ethylphenyl)amino)-5-(trifluoromethyl)pyrimidin-4-yl)-4-(oxetan-3-yl)-3,4-dihydrothieno[2,3-f][1,4]thiazepin-5(2H)-one 1,1-dioxide] | ≤ 5 nM
